Assay results published in ChEMBL document CHEMBL1201862, “PubChem BioAssay data set” (2004).
pIC50: −log10 of the molar value. The source made the active and inactive calls.

Columns and labels:
[1] = target: Beta-galactosidase (Escherichia coli, UniProt Q8VNN2); assay type: functional
[2] = target: T1, Kappa-type opioid receptor (Homo sapiens, UniProt P41145); assay type: functional
[3] = target: T1, Kappa-type opioid receptor; assay type: functional; remark: listed apart in the source
[4] = target: T2, Delta-type opioid receptor (Homo sapiens, UniProt P41143); assay: HTS Image-Based Screen for Agonists of the DOR Receptor. [Related pubchem assays (depositor defined):AID1777, AID1786, AID2133]; assay type: functional
T2 sequence (P41143 whole entry): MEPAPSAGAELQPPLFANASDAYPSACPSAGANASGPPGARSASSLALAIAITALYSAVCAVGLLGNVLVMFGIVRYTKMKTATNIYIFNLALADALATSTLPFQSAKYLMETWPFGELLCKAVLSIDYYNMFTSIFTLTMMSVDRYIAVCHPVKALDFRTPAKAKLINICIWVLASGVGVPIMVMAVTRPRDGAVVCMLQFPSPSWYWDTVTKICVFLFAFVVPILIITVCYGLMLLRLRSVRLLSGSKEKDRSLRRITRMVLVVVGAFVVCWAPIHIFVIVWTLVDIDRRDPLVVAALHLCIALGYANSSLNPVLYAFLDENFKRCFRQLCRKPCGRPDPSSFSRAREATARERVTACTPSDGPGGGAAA

[5] = target: T2, Delta-type opioid receptor; assay: HTS Image-Based Screen for Antagonists of the DOR Receptor. [Related pubchem assays (depositor defined):AID1777, AID1785, AID1786, AID2133]; assay type: functional
[6] = target: Mu-type opioid receptor (Homo sapiens, UniProt P35372); assay: HTS Image-Based Screen for Agonists of the MOR Receptor. [Related pubchem assays (depositor defined):AID1777, AID1785, AID1786, AID2133]; assay type: functional;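 further: imaging of beta-arrestin GFP recruitment into spots after receptor activation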
Sequence of Mu-type opioid receptor (P35372 whole entry): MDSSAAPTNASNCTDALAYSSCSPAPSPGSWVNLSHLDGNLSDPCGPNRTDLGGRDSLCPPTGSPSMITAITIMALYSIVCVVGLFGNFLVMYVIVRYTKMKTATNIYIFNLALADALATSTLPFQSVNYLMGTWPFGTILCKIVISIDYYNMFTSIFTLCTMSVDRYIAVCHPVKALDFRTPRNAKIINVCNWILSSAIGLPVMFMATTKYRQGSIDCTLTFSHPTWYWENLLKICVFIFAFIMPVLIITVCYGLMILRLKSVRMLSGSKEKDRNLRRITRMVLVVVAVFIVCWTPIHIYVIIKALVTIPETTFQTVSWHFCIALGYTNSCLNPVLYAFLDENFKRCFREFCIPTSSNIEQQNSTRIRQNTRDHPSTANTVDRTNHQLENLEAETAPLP

[7] = toxicity toward cultured mammalian cells – cell-based, plate reader, cherry-pick samples, cytotoxicity control, dose response (AID 504397); assay type: functional
[8] = target: T3, Replicative DNA helicase DnaB (Mycobacterium tuberculosis, UniProt P9WMR3); assay: DnaB intein splicing inhibitors, dose response, biochemical, cell-free fluorescence (AID 449749); assay type: functional
T3 sequence (P9WMR3 whole entry): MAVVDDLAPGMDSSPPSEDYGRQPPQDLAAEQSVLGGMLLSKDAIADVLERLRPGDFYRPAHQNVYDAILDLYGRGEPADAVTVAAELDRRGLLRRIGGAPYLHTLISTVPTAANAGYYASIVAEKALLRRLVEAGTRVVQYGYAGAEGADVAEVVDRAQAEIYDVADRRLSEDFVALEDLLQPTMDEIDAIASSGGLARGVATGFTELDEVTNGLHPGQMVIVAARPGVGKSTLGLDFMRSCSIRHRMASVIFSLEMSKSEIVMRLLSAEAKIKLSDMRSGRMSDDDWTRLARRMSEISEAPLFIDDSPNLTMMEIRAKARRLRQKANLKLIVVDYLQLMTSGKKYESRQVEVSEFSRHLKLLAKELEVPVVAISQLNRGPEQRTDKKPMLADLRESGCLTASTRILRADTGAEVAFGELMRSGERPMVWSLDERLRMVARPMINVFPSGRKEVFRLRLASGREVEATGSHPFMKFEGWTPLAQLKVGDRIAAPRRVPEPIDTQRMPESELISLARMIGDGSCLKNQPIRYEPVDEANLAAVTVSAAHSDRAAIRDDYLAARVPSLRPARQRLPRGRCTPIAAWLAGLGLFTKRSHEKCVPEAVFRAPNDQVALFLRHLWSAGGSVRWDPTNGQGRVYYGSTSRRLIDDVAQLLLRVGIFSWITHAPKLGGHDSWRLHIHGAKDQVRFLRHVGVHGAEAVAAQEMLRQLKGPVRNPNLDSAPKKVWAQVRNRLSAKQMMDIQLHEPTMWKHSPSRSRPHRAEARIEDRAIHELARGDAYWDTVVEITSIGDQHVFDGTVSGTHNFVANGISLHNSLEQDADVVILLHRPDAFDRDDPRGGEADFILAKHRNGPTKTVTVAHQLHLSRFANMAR

[9] = viability of HCT116 lacking mutant beta-catenin – cell-based, human colon tumor, dose response (AID 1045); assay type: functional;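 further: HCT116 colon tumor cells with beta catenin knocked out; cells exposed to compound for 60 hours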
[10] = viability of PTEN-deleted HCT116 cells – cell-based, HCT116 PTEN knockout, dose response (AID 1047); assay type: functional;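 further: HCT116 colon tumor cells with PTEN knocked out; cells exposed to compound for 60 hours before readout; potency for loss of cell viability measured by luminescence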
[11] = target: T4, G-protein coupled receptor 35 (Homo sapiens, UniProt Q9HC97); assay: inhibition of zaprinast-stimulated GPR35 beta-arrestin translocation – imaging, U2OS, beta-arrestin-GFP, zaprinast agonist, primary screen (AID 2058); assay type: functional;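 further: antagonist potency meaning inhibition of agonist-induced arrestin redistribution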
T4 sequence (Q9HC97 whole entry): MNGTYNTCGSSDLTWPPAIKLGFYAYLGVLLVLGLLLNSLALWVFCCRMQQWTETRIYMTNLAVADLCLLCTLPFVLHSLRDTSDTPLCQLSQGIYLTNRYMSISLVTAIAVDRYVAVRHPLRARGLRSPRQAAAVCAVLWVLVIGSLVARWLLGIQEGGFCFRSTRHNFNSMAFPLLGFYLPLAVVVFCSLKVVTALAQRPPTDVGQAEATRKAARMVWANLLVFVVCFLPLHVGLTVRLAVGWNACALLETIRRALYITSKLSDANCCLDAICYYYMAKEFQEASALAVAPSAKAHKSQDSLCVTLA

[12] = target: Integrin alpha-4 (Homo sapiens, UniProt P13612); assay: allosteric modulators of alpha4 integrin VLA-4 – cell-based, LIBS antibody binding, flow cytometry, SAR follow-up (AID 488791); assay type: functional
Sequence of Integrin alpha-4 (P13612 whole entry): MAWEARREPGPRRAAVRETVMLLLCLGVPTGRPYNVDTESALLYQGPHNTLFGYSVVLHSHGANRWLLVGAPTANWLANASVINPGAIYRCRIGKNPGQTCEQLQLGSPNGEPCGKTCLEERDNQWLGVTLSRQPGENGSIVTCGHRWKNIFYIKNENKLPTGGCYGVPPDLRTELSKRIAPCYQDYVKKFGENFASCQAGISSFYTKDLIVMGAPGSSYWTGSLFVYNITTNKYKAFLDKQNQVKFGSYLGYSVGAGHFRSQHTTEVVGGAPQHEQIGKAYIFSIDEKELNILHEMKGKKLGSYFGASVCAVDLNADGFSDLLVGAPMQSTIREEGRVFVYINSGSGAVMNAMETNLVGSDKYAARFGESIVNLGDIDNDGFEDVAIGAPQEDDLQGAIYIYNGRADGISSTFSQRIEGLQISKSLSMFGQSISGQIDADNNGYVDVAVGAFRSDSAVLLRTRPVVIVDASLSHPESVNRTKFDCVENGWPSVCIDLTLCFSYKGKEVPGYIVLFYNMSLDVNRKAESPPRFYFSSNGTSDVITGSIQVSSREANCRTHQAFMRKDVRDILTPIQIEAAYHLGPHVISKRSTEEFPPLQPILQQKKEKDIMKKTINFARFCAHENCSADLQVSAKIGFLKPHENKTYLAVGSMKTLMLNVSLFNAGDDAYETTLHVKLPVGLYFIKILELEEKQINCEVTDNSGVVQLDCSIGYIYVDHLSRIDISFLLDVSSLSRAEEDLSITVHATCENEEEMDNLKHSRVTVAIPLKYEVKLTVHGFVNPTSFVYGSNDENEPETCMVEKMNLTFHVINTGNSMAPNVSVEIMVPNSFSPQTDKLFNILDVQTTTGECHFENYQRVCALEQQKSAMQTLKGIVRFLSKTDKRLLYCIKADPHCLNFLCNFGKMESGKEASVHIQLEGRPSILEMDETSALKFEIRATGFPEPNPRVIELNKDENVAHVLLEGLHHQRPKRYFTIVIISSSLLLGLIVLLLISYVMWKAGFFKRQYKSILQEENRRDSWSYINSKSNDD

[13] = target: T5, Protein RecA (Mycobacterium tuberculosis, UniProt P9WHJ3); assay: Fluorescence Cell-Free Homogeneous Dose Retest to Identify Inhibitors of RecA-Intein Splicing Activity. [Related pubchem assays (depositor defined):AID2097, AID2223, AID489010, AID492950]; assay type: functional
T5 sequence (P9WHJ3 whole entry): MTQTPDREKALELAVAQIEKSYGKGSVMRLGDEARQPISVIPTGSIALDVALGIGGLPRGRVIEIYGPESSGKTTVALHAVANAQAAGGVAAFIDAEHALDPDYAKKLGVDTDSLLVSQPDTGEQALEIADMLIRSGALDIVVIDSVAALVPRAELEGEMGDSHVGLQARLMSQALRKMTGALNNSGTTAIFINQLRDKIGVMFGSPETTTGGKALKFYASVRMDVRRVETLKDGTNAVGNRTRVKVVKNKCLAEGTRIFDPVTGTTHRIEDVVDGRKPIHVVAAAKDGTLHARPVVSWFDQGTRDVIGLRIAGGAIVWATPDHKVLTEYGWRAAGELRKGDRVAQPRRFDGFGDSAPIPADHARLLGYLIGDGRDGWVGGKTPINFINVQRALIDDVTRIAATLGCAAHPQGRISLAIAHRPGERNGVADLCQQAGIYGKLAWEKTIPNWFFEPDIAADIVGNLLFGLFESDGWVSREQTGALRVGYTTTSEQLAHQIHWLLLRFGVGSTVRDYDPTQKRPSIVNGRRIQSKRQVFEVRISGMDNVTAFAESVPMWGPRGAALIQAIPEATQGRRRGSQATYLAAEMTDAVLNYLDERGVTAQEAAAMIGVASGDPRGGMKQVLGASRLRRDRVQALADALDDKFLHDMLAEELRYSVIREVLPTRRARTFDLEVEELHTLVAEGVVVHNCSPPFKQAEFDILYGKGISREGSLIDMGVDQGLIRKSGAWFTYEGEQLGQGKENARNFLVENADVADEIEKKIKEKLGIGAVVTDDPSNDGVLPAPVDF

[14] = target: T6, CAAX prenyl protease 2 (Saccharomyces cerevisiae S288c, UniProt Q03530); assay type: biochemical
T6 sequence (Q03530 whole entry): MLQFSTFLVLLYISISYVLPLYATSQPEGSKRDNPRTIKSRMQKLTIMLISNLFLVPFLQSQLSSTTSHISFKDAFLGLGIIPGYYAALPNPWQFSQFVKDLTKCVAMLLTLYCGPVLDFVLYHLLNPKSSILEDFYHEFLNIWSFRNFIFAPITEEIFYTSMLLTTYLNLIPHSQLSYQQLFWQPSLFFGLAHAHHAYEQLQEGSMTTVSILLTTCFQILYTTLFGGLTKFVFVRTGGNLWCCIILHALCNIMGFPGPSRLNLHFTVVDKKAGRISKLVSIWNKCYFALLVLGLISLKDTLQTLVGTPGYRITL

[15] = target: T7, G-protein coupled receptor 55 (Homo sapiens, UniProt Q9Y2T6); assay: inhibition of LPI-stimulated GPR55 beta-arrestin translocation – imaging, U2OS, beta-arrestin-GFP, LPI agonist, primary screen (AID 2013); assay type: functional;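 further: antagonist potency measured as reduced agonist-driven arrestin aggregation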
T7 sequence (Q9Y2T6 whole entry): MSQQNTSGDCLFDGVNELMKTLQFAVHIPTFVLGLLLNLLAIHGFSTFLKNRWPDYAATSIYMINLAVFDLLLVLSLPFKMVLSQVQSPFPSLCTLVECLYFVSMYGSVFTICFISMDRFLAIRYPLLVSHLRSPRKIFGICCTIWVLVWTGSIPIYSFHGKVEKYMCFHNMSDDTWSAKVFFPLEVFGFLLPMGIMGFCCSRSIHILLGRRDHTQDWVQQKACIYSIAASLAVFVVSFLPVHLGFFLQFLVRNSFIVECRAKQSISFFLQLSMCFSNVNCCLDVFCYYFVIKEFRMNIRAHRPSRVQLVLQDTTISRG

[16] = target: T8, CAAX prenyl protease 2 (Homo sapiens, UniProt Q9Y256); assay: inhibition of Ras-converting CAAX protease Rce1 – biochemical, yeast membranes, quenched-peptide fluorescence, cherry-pick, dose response (AID 588849)
T8 sequence (Q9Y256 whole entry): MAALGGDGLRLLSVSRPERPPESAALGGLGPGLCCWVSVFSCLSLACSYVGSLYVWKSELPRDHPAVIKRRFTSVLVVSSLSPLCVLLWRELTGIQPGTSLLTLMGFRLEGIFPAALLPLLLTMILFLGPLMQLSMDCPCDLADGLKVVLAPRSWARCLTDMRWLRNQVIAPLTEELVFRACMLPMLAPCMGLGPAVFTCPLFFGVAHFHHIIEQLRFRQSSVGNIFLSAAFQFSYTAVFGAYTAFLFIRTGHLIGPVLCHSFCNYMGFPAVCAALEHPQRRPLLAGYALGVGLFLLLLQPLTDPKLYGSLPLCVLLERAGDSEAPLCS

[17] = target: T9, Cannabinoid receptor 2 (Homo sapiens, UniProt P34972); assay: SAR analysis of agonists of the Cannabinoid Receptor 2 using an Image-Based Assay. [Related pubchem assays (depositor defined):AID2013, AID2026]; assay type: functional
T9 sequence (P34972 whole entry): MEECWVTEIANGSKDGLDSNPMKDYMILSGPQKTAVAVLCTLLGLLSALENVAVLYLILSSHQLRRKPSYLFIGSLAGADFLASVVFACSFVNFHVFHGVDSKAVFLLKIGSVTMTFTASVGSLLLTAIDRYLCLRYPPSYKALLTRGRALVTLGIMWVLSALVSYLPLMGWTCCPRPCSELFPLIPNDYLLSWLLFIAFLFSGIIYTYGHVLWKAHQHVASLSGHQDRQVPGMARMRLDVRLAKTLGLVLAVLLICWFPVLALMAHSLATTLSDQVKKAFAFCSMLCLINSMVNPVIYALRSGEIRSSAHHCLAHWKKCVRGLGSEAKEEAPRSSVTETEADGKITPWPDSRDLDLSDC

[18] = target: T9, Cannabinoid receptor 2; assay: SAR analysis of antagonists of the Cannabinoid Receptor 2 using an Image-Based Assay. [Related pubchem assays (depositor defined):AID2013, AID2026]; assay type: functional
[19] = target: T7, G-protein coupled receptor 55; assay: blockade of LPI-induced GPR55 arrestin translocation – imaging, U2OS, beta-arrestin-GFP, LPI agonist, set 2, SAR follow-up (AID 2820); assay type: functional
[20] = Trypanosoma cruzi growth suppression in host cells – NIH3T3 host cells, beta-gal luminescence, confirmation (AID 2044); assay type: functional, cell-based;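 further: intracellular parasites grown in NIH/3T3 mouse fibroblasts as host cells; luminescent beta-galactosidase reporter signal from transgenic T. cruzi replicating inside host cells; inhibitors lower the luminescence signal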
[21] = target: T10, Cannabinoid receptor 1 (Homo sapiens, UniProt P21554); assay: SAR analysis of agonists of the Cannabinoid Receptor 1 using an Image-Based Assay - Set 2. [Related pubchem assays (depositor defined):AID2013, AID2026]; assay type: functional
T10 sequence (P21554 whole entry): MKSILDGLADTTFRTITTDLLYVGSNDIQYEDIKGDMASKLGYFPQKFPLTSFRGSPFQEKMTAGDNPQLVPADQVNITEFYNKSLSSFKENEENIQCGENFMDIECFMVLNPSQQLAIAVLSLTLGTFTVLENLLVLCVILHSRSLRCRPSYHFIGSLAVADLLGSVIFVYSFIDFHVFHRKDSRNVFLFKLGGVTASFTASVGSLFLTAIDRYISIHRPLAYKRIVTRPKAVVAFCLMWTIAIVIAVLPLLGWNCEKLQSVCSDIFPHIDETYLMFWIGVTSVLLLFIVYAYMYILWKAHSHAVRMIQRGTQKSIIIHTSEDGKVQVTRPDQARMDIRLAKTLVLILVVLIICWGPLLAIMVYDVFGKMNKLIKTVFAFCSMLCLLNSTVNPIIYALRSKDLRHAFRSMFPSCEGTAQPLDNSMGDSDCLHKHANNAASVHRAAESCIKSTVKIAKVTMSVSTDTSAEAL

[22] = NIH3T3 cell viability loss – ATP luminescence, mouse fibroblasts, counter-screen, dose response (AID 2010); assay type: functional, cell-based;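 further: cells exposed to compound for about 90 hours before reading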
[23] = target: T4, G-protein coupled receptor 35; assay: SAR analysis of Agonists of the GPR35 Receptor using an Image-Based Assay - Set 2. [Related pubchem assays (depositor defined):AID2013, AID2026]; assay type: functional
[24] = target: T10, Cannabinoid receptor 1; assay: SAR analysis of antagonists of the Cannabinoid Receptor 1 using an Image-Based Assay - Set 2. [Related pubchem assays (depositor defined):AID2013, AID2026]; assay type: functional
[25] = target: T4, G-protein coupled receptor 35; assay: SAR analysis of Antagonists of the GPR35 Receptor using an Image-Based Assay - Set 3. [Related pubchem assays (depositor defined):AID2013, AID2026]; assay type: functional

T1 sequence (P41145 whole entry): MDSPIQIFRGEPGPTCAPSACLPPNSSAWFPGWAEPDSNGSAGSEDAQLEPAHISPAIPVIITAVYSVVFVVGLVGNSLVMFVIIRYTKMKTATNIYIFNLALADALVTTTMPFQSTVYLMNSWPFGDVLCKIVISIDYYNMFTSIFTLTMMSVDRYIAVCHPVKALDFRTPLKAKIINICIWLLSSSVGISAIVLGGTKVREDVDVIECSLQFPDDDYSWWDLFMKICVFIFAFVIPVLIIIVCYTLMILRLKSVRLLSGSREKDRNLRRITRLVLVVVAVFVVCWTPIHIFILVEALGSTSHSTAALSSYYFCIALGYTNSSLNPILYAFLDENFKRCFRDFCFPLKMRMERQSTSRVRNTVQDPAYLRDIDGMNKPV
Sequence of Beta-galactosidase (Q8VNN2 whole entry): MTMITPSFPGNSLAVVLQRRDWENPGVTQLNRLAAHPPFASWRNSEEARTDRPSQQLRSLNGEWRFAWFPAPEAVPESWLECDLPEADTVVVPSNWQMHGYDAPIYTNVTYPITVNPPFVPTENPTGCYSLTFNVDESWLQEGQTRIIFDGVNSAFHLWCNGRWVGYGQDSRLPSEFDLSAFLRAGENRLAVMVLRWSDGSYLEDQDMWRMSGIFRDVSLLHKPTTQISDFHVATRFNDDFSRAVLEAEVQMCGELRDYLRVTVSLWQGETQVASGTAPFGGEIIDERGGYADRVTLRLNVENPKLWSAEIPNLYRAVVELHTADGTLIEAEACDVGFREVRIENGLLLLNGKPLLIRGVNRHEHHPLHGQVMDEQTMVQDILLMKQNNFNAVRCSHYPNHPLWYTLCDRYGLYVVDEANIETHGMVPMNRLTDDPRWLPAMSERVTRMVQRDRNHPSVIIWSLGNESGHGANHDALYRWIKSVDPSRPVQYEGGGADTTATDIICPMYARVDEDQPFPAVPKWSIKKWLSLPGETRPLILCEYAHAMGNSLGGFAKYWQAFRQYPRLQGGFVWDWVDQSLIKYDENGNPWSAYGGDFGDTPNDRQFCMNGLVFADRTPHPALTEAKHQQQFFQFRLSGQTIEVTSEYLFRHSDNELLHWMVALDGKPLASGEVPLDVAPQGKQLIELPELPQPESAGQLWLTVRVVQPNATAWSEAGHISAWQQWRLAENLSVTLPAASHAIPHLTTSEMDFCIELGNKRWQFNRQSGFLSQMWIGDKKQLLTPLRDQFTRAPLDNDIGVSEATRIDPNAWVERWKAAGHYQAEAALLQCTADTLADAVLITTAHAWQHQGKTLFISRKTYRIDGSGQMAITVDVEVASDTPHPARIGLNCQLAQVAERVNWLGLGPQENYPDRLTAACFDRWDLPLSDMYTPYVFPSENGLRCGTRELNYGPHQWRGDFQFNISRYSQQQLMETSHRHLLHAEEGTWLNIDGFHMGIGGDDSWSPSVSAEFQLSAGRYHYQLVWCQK

COC(=O)c1ccc(C)c(-n2c(=O)n(Cc3ccccc3)c(=O)c3[nH]cnc32)c1
active: EC50 [1] 11.5 µM | IC50 [3] 6.39 µM
inactive: EC50 [4] > 32 µM | IC50 [5] > 32 µM | EC50 [6] > 32 µM
< 4.49: pIC50 [2]

CC(NC(=O)/C(C#N)=C/c1ccc(Cl)c([N+](=O)[O-])c1)c1ccccc1 (stereo not drawn)
active: AC50 [7] 18.2 µM | AC50 [8] 4.02 µM | EC50 [9] 13.5 µM | EC50 [10] 17.8 µM | IC50 [11] 2.53 µM | EC50 [12] 2.42 µM | EC50 [13] 5.2 µM | AC50 [14] 2.44 µM | IC50 [15] 8.95 µM | AC50 [16] 8.59 µM

CCC(C)NS(=O)(=O)c1ccc(NC(=O)C(Sc2ccccc2)c2ccccc2)cc1 (stereo not drawn)
> 60 µM (not active): EC50 [22]
inactive: EC50 [17] > 32 µM | IC50 [18] > 32 µM | EC50 [21] > 32 µM | EC50 [23] > 32 µM | IC50 [25] > 32 µM
active: IC50 [19] 1.94 µM | EC50 [20] 2.34 µM | EC50 [9] 14.5 µM | EC50 [10] 13.6 µM | IC50 [15] 0.592 µM | IC50 [24] 0.975 µM
